Test [1] relates to gastric acid secretion. Briefly: Inhibitory effect on pentagastrin-stimulated gastric acid secretion in anesthetized rat (perfused stomach, Schild method). The test is classed as in vivo, rat (Sprague Dawley). The settings on record: intraduodenal (i.d.), 0.5% M.C. suspension. The text has this:
Anti-acid secreting function of carbamoylmethylurea derivative (I) of the present invention has been confirmed by the in vivo experiment (cf. Schild Method; Experiment 1 below). […] From the results of these experiments, it is apparent that the carbamoylmethylurea derivative (I) has an anti-acid secreting function, and is an excellent gastrin receptor antagonist and/or CCK-B receptor antagonist which has enough functional separativeness from CCK-A receptor.
Experiment 1 In Vivo Test
Evaluation of Inhibitory Effect on Gastric Acid Secretion by Child Method
Twenty four hour starved (ad libitum for water) male Sprague Daily rats (8-week-old) were anesthetized with urethane (1.5 g/kg S.C.) and kept breathing with esophagus cannulas. After laparotomy, esophagus cannulas were inserted orally up to proventriculus and ligated around gastric cardiac. Perfusion cannulas were inserted from duodenum into stomach and ligated around pylorus. Another cannulas were placed into duodenum and ligated for administration of drug. After sutra of abdomen, stomach was perfused via the esophagus cannulas with physiological saline (37° C.) while collecting perfusate for a 15 min interval. The perfusate was subjected to titration with 0.001N NaOH solution to determine the acidity. When the basal acid secretion became stable, pentagastrin ([…])was administered in a sustained manner via common carotid vein for about 90 min until the acid secretion reached approximately the highest level, when a test compound (0.5% M.C. suspension) was administered into duodenum through cannulas. The perfusate was collected for a 15 min interval to monitor the acid secretion for 90 min. The percent inhibition was calculated as follows:
Percent inhibition (%)=100×(A-B)/(C-B)
A: the minimum value of total acidity observed after the administration of a test compound;
B: the total acidity obtained immediately before the administration of pentagastrin; and
C: the total acidity obtained immediately before the administration of a test compound.

For test [2], the target named is T1, CCK-B receptor (Mus musculus, UniProt P56481).
T1 construct: crude membrane specimen from mouse cerebral cortex; from tissue; host or cells: cerebral cortex of male ddY mice, crude membranes
T1 sequence (P56481 1-453): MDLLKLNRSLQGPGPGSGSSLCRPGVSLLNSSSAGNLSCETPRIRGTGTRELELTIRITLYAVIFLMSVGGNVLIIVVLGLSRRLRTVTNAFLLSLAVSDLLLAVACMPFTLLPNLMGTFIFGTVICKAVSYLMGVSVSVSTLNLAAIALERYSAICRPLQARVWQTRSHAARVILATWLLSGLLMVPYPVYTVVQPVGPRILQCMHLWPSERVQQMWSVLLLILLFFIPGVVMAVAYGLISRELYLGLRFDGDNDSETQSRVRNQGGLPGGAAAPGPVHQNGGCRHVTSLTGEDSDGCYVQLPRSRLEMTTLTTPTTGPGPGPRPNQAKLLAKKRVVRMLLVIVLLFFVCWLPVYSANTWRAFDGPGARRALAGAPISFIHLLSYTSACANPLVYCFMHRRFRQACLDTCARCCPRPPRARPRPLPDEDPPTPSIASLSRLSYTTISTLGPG
Briefly: CCK-B receptor antagonism: displacement of [3H]CCK-8 from crude membrane of cerebral cortex. Conditions: [3H]CCK-8 1 nM, 90 min, 25° C. The test is classed as binding, mouse (male ddY). How it is done:
(§1) The pharmacological effect of compounds (I) prepared in Examples above were evaluated in vitro with respect to antagonistic activity against gastrin receptor, CCK-B receptor or CCK-A receptor, using fundic gland cells of guinea pig, crude membrane specimen from mouse cerebral cortex, or crude membrane specimen from mouse pancreas, respectively.
(§2) Male Hartley guinea pig (450-600 g) or male ddY mouse (24-30 g) were used.
(§3) (2) CCK-A Receptor Antagonism and CCK-B Receptor Antagonism Preparation of CCK receptor preparations Male ddY mice (24 to 30 g) were killed by decapitation and cerebral cortex (CCK-B) and pancreas (CCK-A) were extracted immediately. Each of cerebral cortex and pancreas was mixed with 50 mM Tris-HCl buffer (pH 7.4) and homogenized with a teflon-glass homogenizer and polytron homogenizer to obtain crude membrane specimens.
(§4) Preparation of test compounds and procedures of displacing assay
(§5) A 1M solution of a compound to be tested in DMSO is prepared and diluted with 50% DMSO to obtain a ten-fold dilution series.
(§6) The reaction is initiated by the addition of crude membrane specimen to solutions of different concentration each containing [^3 H]CCk-8 (final concentration, 1 nM). The mixture is incubated for 90 min at 25° C., filtered through glass filter with aspiration and washed with a cooled 50 mM Tris buffer. After the addition of Aquazol-2 cocktail the radioactivity is counted. The same procedure was repeated using 50% DMSO solution or Ceruletide (final concentration, 1 μM) instead of a solution of test compound so as to obtain the control value regarding total binding or the value regarding non-specific binding, respectively.
(§7) The IC50 was determined by plotting the ratio (%) of specific binding of a test compound to that of control on semilogarithmic graph and obtaining the concentration corresponding to 50%, wherein: specific binding of control=total binding (cpm)--non-specific binding (cpm); and specific binding of test compound=total binding (cpm)--non-specific binding (cpm).

Test [3] deals with T2, CCK-A receptor (Mus musculus, UniProt O08786).
T2 construct: crude membrane specimen from mouse pancreas; from tissue; host or cells: pancreas of male ddY mice, crude membranes
T2 sequence (O08786 1-436): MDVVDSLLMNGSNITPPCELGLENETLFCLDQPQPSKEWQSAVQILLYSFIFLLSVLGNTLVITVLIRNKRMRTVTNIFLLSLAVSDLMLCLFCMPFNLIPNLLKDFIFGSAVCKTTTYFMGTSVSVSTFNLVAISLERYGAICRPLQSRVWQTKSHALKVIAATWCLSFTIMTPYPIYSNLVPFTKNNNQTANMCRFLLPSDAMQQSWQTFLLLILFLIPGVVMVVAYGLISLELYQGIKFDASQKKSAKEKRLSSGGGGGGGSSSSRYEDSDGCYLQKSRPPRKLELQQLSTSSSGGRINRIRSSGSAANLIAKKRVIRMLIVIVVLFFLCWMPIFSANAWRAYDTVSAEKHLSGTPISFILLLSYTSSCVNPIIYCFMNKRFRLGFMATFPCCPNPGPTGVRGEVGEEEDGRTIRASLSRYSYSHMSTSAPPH
Briefly: CCK-A receptor antagonism: displacement of [3H]CCK-8 from crude membrane of pancreas. The test is classed as binding, mouse (male ddY). Conditions: [3H]CCK-8 1 nM, 90 min, 25° C. On the procedure:
as §1, §2, §3, §4, §5, §6, §7
In general terms: Loss of bound radioactivity is the signal in a displacement assay; it reports binding, not function.

In test [4] the target is T3, gastrin receptor (Cavia porcellus, UniProt H0VZC5).
T3 construct: stomach was extracted from each animal immediately, from which gastric glands were prepared; from tissue; host or cells: gastric (fundic) glands of male Hartley guinea pigs
T3 sequence (H0VZC5 1-426): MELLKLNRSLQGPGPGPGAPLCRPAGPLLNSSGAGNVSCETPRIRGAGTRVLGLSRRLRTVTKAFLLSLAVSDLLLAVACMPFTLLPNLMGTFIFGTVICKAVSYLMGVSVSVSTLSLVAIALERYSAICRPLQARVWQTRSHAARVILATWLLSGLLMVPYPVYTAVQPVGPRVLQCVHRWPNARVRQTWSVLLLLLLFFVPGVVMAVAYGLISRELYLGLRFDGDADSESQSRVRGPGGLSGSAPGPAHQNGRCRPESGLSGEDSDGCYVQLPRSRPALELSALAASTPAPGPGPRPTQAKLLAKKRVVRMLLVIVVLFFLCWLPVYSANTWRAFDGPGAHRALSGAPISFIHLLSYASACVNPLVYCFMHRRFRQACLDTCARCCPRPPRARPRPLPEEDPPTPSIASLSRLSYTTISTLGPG
Briefly: Gastrin receptor antagonism: displacement of 125I-labeled gastrin from gastric glands. The test is classed as binding, guinea pig (male Hartley). Conditions: guinea pig fundic gastric glands; 125I-gastrin 0.2 nM; 30 min, 25° C. How it is done: as §1, §2
(1) Gastrin Receptor Antagonism
Preparation of gastric glands
Male Hadley guinea pigs (450-600 g) were killed by bleeding and stomach was extracted from each animal immediately, from which gastric glands were prepared.
Preparation of test compounds and procedures of displacing assay A 1M solution of a compound to be tested in DMSO is prepared and diluted with 50% DMSO to obtain a ten-fold dilution series.
The reaction is initiated by the addition of gastric glands to solutions of different concentration each containing ^125 I-labeled gastrin (final concentration, 0.2 nM). The mixture is incubated for 30 min at 25° C., centrifuged at 2000 rpm for 5 min and the supernatant is removed by aspiration. To the pellet is added ice-cooled incubation buffer and mixed gently, followed by an immediate centrifugation and removal of the supernatant by aspiration. The radioactivity is counted on gamma counter. The same procedure was repeated using 50% DMSO solution or human gastrin I (final concentration, 2 μM) instead of a solution of test compound so as to obtain the control value regarding total binding or the value regarding non-specific binding, respectively.
as §7

Counter-ions that a name gives are not always drawn.

Broadly, the ED50 is the midpoint of the dose-response relation. Lower therefore signals greater potency. As usually defined, the IC50 is the concentration at which inhibition is half-maximal. Lower therefore signals inhibition by little substance.

Turning to `COC(=O)c1cccc(NC(=O)NCC(=O)N(CC(=O)OC(C)(C)C)c2ccccc2C(=O)c2ccccc2)c1` [Compound 9l, 2-(N-(tert-Butoxycarbonylmethyl)-N'-(m-(carbomethoxy)phenyl)ureidomethylcarbonylamino)benzophenone], the 50% effect level in test [1] (Rattus norvegicus) (ED50) was put at a dose of 0.04 mg/kg. Moreover, the 50% inhibitory concentration (IC50) in test [2] came out at 56 nM; in test [3], 1350 nM; in test [4], 7 nM.
As to `CC(C)(C)OC(=O)CN(C(=O)CNC(=O)Nc1cccc(C(=O)O)c1)c1ccccc1C(=O)c1ccccc1` [Compound 8ha, 2-[(tert-Butoxycarbonylmethyl)-[3-(m-(carboxylphenyl)ureidomethylcarbonyl]]aminobenzophenone sodium salt], the “Inhibitory Effect on acid secretion in rat ED50, i.d.” value in test [1] (sodium salt) was determined as 0.003 mg/kg. The IC50 turned out to be 42 nM in test [2], 3400 nM in test [3] and 2 nM in test [4].
In the case of `CC(C)(C)OC(=O)CN(C(=O)CNC(=O)Nc1cccc(C(=O)O)c1)c1ccccc1C(=O)c1ccccc1` [Compound 8h], the “Inhibitory Effect on acid secretion in rat ED50, i.d.” value in test [1] came out at 0.014 mg/kg. For the same molecule, the IC50 in test [2] amounted to 64 nM; in test [3] it was 5000 nM; in test [4], 4 nM.
As to `Cc1cccc(NC(=O)N[C@@H]2N=C(c3ccccc3)c3ccccc3N(CC(=O)c3ccccc3C)C2=O)c1` [YM-022, reference compound], the ED50 in test [1] came out at 0.107 mg/kg. Further, the IC50 was 2 nM in test [2], 100 nM in test [3] and 2 nM in test [4].

These data come from patent publication US5739162A, “Carbamoylmethylurea derivatives” (Shionogi & Co., Ltd., priority 1994, dated 1998).
